Some test systems named below: SF-268; NCI-H460; PC-3; SNB-19; OVCAR-8; RXF 393; HCT-116; UACC-62; HT-29; SF-539; 786-0; OVCAR-5; TK-10; MOLT-4; CCRF-CEM; SK-OV-3; LOX IMVI; NCI-H226; K562.
What all share (experiment): NCI anticancer screen, dose series, 48 h

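In this assay, cells in 96-well plates receive the compound at five concentrations for 48 hours. Endpoints are linearly interpolated between the surrounding concentrations. GI50 is the concentration that inhibits growth by half.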 Calls of active or inactive are those of the source. Cut-off read from the data, not from the text of the source: active = GI50 up to about 1.1 µM and inactive = higher.

For `O=C1Nc2ccccc2/C1=N/Nc1nc(-c2ccc(Br)cc2)cs1`, the GI50 is 20 µM (inactive) with SF-268; 21.4 µM (inactive) with NCI-H460; 28.6 µM (inactive) in the experiment with PC-3; 18.5 µM (inactive) with SNB-19; 19.5 µM (inactive) with OVCAR-8; 43.9 µM (inactive) with RXF 393. Moreover, the GI50 with HCT-116 was 26.7 µM (inactive); in the experiment on UACC-62, 20.6 µM (inactive); with HT-29 it was 17.7 µM (inactive); in the experiment with SF-539, 17.5 µM (inactive); in the experiment with 786-0, 17.3 µM (inactive); in the experiment with OVCAR-5 it was 23.8 µM (inactive). Also, the GI50 with TK-10 is 28.6 µM (inactive); in the experiment with MOLT-4 it was 74.8 µM (inactive); in the experiment on CCRF-CEM, 15.7 µM (inactive); with SK-OV-3 it was 23.7 µM (inactive); in the experiment on LOX IMVI, 17.4 µM (inactive).

As for `Cn1c(=O)c(C(=O)Nc2nc(C34CC5CC(CC(C5)C3)C4)cs2)c(O)c2ccccc21`, the GI50 is > 100 µM (inactive) in the experiment with SF-268; 52.8 µM (inactive) in the experiment with NCI-H226; > 100 µM (inactive) with NCI-H460; > 100 µM (inactive) in the experiment with PC-3; 35.6 µM (inactive) with SNB-19; 40 µM (inactive) with K562. Also, the GI50 was > 100 µM (inactive) in the experiment on OVCAR-8; 22.2 µM (inactive) in the experiment with RXF 393; > 100 µM (inactive) with HCT-116; > 100 µM (inactive) with HT-29; > 100 µM (inactive) in the experiment with SF-539; 36.7 µM (inactive) in the experiment with 786-0. For the same compound, the GI50 in the experiment with OVCAR-5 was > 100 µM (inactive); in the experiment on TK-10 it was 25.1 µM (inactive); with MOLT-4, > 10 µM (inactive); with CCRF-CEM, 41.2 µM (inactive); with LOX IMVI, > 100 µM (inactive).

As to `O=C1C=C(Nc2ccccc2C(=O)CC(=O)C(=O)Nc2cccc([N+](=O)[O-])c2)c2ccccc2C1=O`, the GI50 in the experiment on SF-268 was 22.2 µM (inactive); in the experiment on NCI-H226, 59.3 µM (inactive); in the experiment with NCI-H460, 93.3 µM (inactive); in the experiment with SNB-19, 23.3 µM (inactive); with K562 it was 17.7 µM (inactive); in the experiment on OVCAR-8 it was 28 µM (inactive). Moreover, the GI50 in the experiment with RXF 393 was 46.3 µM (inactive); in the experiment on HCT-116 it was 20.7 µM (inactive); in the experiment on UACC-62, 26.6 µM (inactive); in the experiment with HT-29 it was > 100 µM (inactive); with SF-539, > 100 µM (inactive); in the experiment on 786-0, 29.4 µM (inactive). The GI50 with OVCAR-5 is > 100 µM (inactive); in the experiment on TK-10, > 100 µM (inactive); in the experiment on MOLT-4, 4.28 µM (inactive); with CCRF-CEM it was 3.3 µM (inactive); with SK-OV-3, > 100 µM (inactive); with LOX IMVI, 4.82 µM (inactive).

As for `CCCCOP1(=O)C=C(C)C(=C(Cl)Cl)C(C)=C1` (stereo unspecified), the GI50 was 5.56 µM (inactive) in the experiment on SF-268; 3.38 µM (inactive) in the experiment on NCI-H226; 13 µM (inactive) with NCI-H460; 25.8 µM (inactive) in the experiment on SNB-19; 3.85 µM (inactive) in the experiment with K562; 17.9 µM (inactive) with OVCAR-8. The GI50 was 8.51 µM (inactive) with RXF 393; 2.3 µM (inactive) with HCT-116; 7.01 µM (inactive) in the experiment with UACC-62; 4.33 µM (inactive) in the experiment with HT-29; 23.6 µM (inactive) in the experiment with SF-539; 12.5 µM (inactive) with 786-0. The GI50 with OVCAR-5 is 45.1 µM (inactive); in the experiment with TK-10, 11.2 µM (inactive); in the experiment with MOLT-4, 3.02 µM (inactive); in the experiment on CCRF-CEM, 4.2 µM (inactive); with SK-OV-3 it was 19.5 µM (inactive); with LOX IMVI, 5.21 µM (inactive).

As to `COC(=O)CCC(=O)NC1c2cccc3cccc(c23)Cn2c(=O)n(C)c(=O)n21` (stereo unspecified), the GI50 with SF-268, in the experiment with NCI-H460, with PC-3, in the experiment with SNB-19, with K562 and in the experiment with OVCAR-8 was > 100 µM (inactive) throughout. In addition, the GI50 with RXF 393, in the experiment on HCT-116, in the experiment on UACC-62, in the experiment on HT-29, in the experiment with SF-539 and in the experiment on 786-0 was > 100 µM (inactive) each time. Moreover, the GI50 with OVCAR-5, in the experiment with TK-10, in the experiment on MOLT-4, in the experiment with CCRF-CEM, in the experiment with SK-OV-3 and in the experiment with LOX IMVI was > 100 µM (inactive) each time.

On to `O=C1NCCS(=O)(=O)N[C@@H](CC2=CC=CCC2)C(=O)N2CCCC12` (stereo partly specified), for which the GI50 in the experiment on SF-268, with NCI-H226, in the experiment on NCI-H460, with SNB-19, in the experiment on K562 and in the experiment on OVCAR-8 was > 100 µM (inactive) throughout. Besides, the GI50 in the experiment with RXF 393, with HCT-116, in the experiment with UACC-62, in the experiment on HT-29, with SF-539 and in the experiment with 786-0 was > 100 µM (inactive) throughout. Further, the GI50 in the experiment with OVCAR-5, in the experiment with TK-10, in the experiment on MOLT-4, with CCRF-CEM, with SK-OV-3 and in the experiment on LOX IMVI was > 100 µM (inactive) in each case.

Turning to `CCOC(=O)Cn1c(=O)c2nc(SC)sc2n(-c2ccccc2)c1=O`, the GI50 with NCI-H226, in the experiment on NCI-H460, in the experiment on PC-3, in the experiment on SNB-19, with K562 and in the experiment on OVCAR-8 was > 100 µM (inactive) each time. Moreover, the GI50 with RXF 393, in the experiment with HCT-116, in the experiment on UACC-62, with HT-29, in the experiment with 786-0 and in the experiment on OVCAR-5 was > 100 µM (inactive) throughout. Moreover, the GI50 in the experiment on TK-10, in the experiment on MOLT-4 and with CCRF-CEM was > 100 µM (inactive) throughout.

With `O=c1[nH]nc2c3n[nH]c(=O)n3c3ccccc3n12`, the GI50 is > 100 µM (inactive) in the experiment on SF-268; 50.1 µM (inactive) in the experiment with NCI-H226; > 100 µM (inactive) with NCI-H460; > 100 µM (inactive) in the experiment with SNB-19; > 100 µM (inactive) in the experiment on K562; > 100 µM (inactive) in the experiment on OVCAR-8. Also, the GI50 was > 100 µM (inactive) in the experiment on RXF 393; > 100 µM (inactive) in the experiment with HCT-116; > 100 µM (inactive) in the experiment on UACC-62; > 100 µM (inactive) in the experiment on HT-29; 69.8 µM (inactive) in the experiment on SF-539; > 100 µM (inactive) with 786-0. Moreover, the GI50 in the experiment with OVCAR-5, in the experiment with TK-10, in the experiment on MOLT-4, in the experiment with CCRF-CEM, in the experiment on SK-OV-3 and in the experiment on LOX IMVI was > 100 µM (inactive) in each case.

Consider `FC(F)(F)c1cnc(N/N=C(/c2ccccc2)c2ccccn2)c(Cl)c1`, for which the GI50 was 4.85 µM (inactive) with SF-268; 13.2 µM (inactive) with NCI-H226; 3.27 µM (inactive) in the experiment on NCI-H460; 5.3 µM (inactive) in the experiment with PC-3; 9.33 µM (inactive) in the experiment on SNB-19; 4.03 µM (inactive) in the experiment on K562. The GI50 is 2.39 µM (inactive) in the experiment on OVCAR-8; 12.3 µM (inactive) in the experiment on RXF 393; 3.26 µM (inactive) in the experiment on HCT-116; 8.75 µM (inactive) in the experiment with UACC-62; 0.31 µM (active) in the experiment on HT-29; 4.6 µM (inactive) in the experiment on SF-539. Moreover, the GI50 in the experiment with 786-0 is 4.12 µM (inactive); in the experiment on OVCAR-5 it was 6.87 µM (inactive); in the experiment on MOLT-4, 2.67 µM (inactive); in the experiment on CCRF-CEM it was 2.4 µM (inactive); in the experiment with SK-OV-3, 4.76 µM (inactive).

Regarding `Cc1ccc(-c2c(C#N)c(N)[nH]c(=S)c2C#N)cc1`, the GI50 in the experiment with SF-268 was 31.9 µM (inactive); with NCI-H226, 23.9 µM (inactive); in the experiment on NCI-H460, 47.6 µM (inactive); in the experiment on PC-3 it was 33 µM (inactive); in the experiment on SNB-19, 77.1 µM (inactive); with K562 it was 21.1 µM (inactive). The GI50 in the experiment with OVCAR-8 is 46.3 µM (inactive); in the experiment with RXF 393, 18.7 µM (inactive); in the experiment on HCT-116, 32.4 µM (inactive); in the experiment on UACC-62, 35.4 µM (inactive); in the experiment with HT-29 it was 48.2 µM (inactive); with SF-539, > 100 µM (inactive). Moreover, the GI50 is 26.1 µM (inactive) in the experiment on 786-0; > 100 µM (inactive) in the experiment with OVCAR-5; 73.6 µM (inactive) in the experiment with TK-10; 16.6 µM (inactive) in the experiment on MOLT-4; 42.2 µM (inactive) with LOX IMVI.

Consider `CCCCCCCCCCCCNC1(C)CNCCCNCCNCCCNC1`, for which the GI50 is 1.34 µM (inactive) with SF-268; 1.51 µM (inactive) in the experiment with NCI-H226; 1.33 µM (inactive) in the experiment with NCI-H460; 1.76 µM (inactive) in the experiment on SNB-19; 1.89 µM (inactive) with K562; 1.55 µM (inactive) in the experiment with OVCAR-8. Moreover, the GI50 with RXF 393 was 1.56 µM (inactive); with HCT-116, 1.32 µM (inactive); in the experiment on UACC-62 it was 1.82 µM (inactive); in the experiment on HT-29, 1.58 µM (inactive); in the experiment on SF-539 it was 1.87 µM (inactive); in the experiment with 786-0 it was 1.75 µM (inactive). Further, the GI50 is 2.23 µM (inactive) with OVCAR-5; 1.7 µM (inactive) in the experiment with TK-10; 1.43 µM (inactive) in the experiment with MOLT-4; 1.38 µM (inactive) with CCRF-CEM; 1.82 µM (inactive) in the experiment on SK-OV-3; 1.84 µM (inactive) with LOX IMVI.

The record behind these values is ChEMBL document CHEMBL1201862, “PubChem BioAssay data set” (2004).
